Test results: patent US10632106B2, “Methods of cancer treatment with 2-(1′H-Indole-3′-carbonyl)-thiazole-4-carboxylic acid methyl ester” (Ariagen, Inc., priority 2009, dated 2020)

Legend:
Assay type in all cases: in vivo
[1] = PK studies of ITE in male nude mice (single dosing); details: for AUC / half-life: male, nude, mouse, plasma
Description: Male nude mice were also used in PK (pharmacokinetic) studies. For i.v. injection, ITE at 1 mg/kg b.w. was administered with DMSO as vehicle via tail vein. For i.p. Injection, ITE at 10, 40, and 80 mg/kg b.w. was delivered with DMSO via lower left abdominal quadrant. In p.o. injection, ITE at 40 and 80 mg/kg b.w. were administered with a vehicle of Labrasol:PEG 400 (2:8, v/v) via oral gavage. Every 15 mice were given a single injection at each dosing level and every 3 of the dosed mice were used to collect blood sample at each time point (0, 0.083, 0.25, 0.5, 1, 2, 4, 8, 24 hr.). Animals were rotated to be sampled twice each but the duration between the two sampling times was at least 110 min. The animal was anesthetized under Isoflurane and restrained manually. Approximately 150 μl of whole blood at each time point is collected (via retro-orbital puncture) into a K2-EDTA tube. Blood samples were put on ice and processed to plasma (4,000 g, 5 min, 4° C.) within 15 min post sampling. Plasma samples were stored at −80° C. until analysis. An aliquot of 20 μl plasma sample was added with 20 μl of an internal standard (Glipizide, 500 ng/ml in ΔCN, for extraction efficiency) to 120 μl of ΔCN (acetonitrile). The mixture was vortexed at 1,500 rpm for 2 min. and then centrifuged at 12,000 rpm for 5 min. Five (5) μl of the supernatant was injected into an LC-MS/MS system (API 4000, Foster City, Calif., USA). A Gemini-C18 column (2.0×50 mm, 5 μm) was used and the LC (liquid chromatography) was run at a flow rate of 0.45 ml/min. with the following program: where Pump A was for 1 mM NH4OAc (ammonium acetate) in water plus 0.025% FA (formic acid) whereas Pump B for 1 mM NH4OAC in acetonitrile plus 0.025% FA. The negative ionization process of the mass spectrometry was operated at an APCI (Atmospheric Pressure Chemical Ionization) mode while the detection at a MRM (Multiple Reaction Monitoring) mode. ITE was identified by recognizing an LC retention time of 2.5 min. and two mass peaks at 285.0 (before collision) and 142.0 m/z (after collision) while the internal standard of 2.35 min. and two mass peaks at 444.3 (before collision) and 319.3 m/z (after collision). ITE was quantified by a standard curve generated every time by a series of known quantities of ITE running through both the extraction/precipitation process after mixing with mouse plasma and the LC-MS/MS system. The WinNonlin V5.2 statistics software (Pharsight Corporation, California, USA) was used to generate PK parameters such as Cmax, Tmax, T1/2, and AUC (Area under Curve) etc. using a non-compartmental model. Results

[2] = test system: human liver cancer cell line HepG2 xenografts; assay: HepG2 xenograft growth inhibition in nude mice; details: 80 mg/kg i.p. once daily
Description: (§1) All the procedures related to animal handling, care, and the treatment in the study were performed following guidelines approved by an Institutional Animal Care and Use Committee (IACUC) of Crown Bioscience, Inc. (Santa Clara, Calif., USA, a contract research organization we hired) based on the guidance of the Association for Assessment and Accreditation of Laboratory Animal Care (AAALAC). Animals were checked for any effects of tumor growth and drug treatment on normal behavior such as mobility, food and water consumption, body weight gain/loss (gross body weights were measured twice weekly), eye/hair matting, and any other abnormal effect. Death and observed clinical signs were recorded on the basis of the number of animals within each group. Individual animals with a tumor volume exceeding 3,000 mm^3 or animals of a group with a mean tumor volume exceeding 2,000 mm^3 were euthanized. In addition, animals showing signs of severe distress and/or pain, dropping body weight more than 20% from that at the start of treatment, or losing the capability of accessing adequate food or water were humanely sacrificed.
Each mouse was inoculated subcutaneously at the right flank with the LNCaP cells (1×10^7) in 0.1 ml of PBS for tumor development. When a mean tumor volume reached around 150 mm^3, the tumor-bearing mice were divided into homogeneous blocks based on their tumor volumes followed by a randomization of mice in each block into treatment groups (thus minimizing variations in tumor response to treatments due to the differential in initial mean tumor volumes). Each treatment group was consisted of 8 tumor-bearing mice. Vehicle (DMSO) or ITE in the vehicle at specified doses were administered to the mice by either i.p. (intraperitoneal) or p.o. (oral) injection once or twice daily for 28 continuous days as indicated.
Tumor volume was measured twice weekly in two dimensions using a caliper and the volume was calculated with a formula of: V=0.5 a×b^2, where a and b are the long and short diameter (in mm) of a tumor, respectively. The tumor volume was then used for calculations of both TGI (Tumor Growth Inhibition) and TGD (Tumor Growth Delay). The TGI was determined by: TGI=ΔT/ΔC×100%, where ΔT was a difference between the mean tumor volume at a specified day of observation and that at the day treatment starts (day 1) for a drug treated group whereas ΔC was the same difference measured for the control group. The TGD was calculated as: TGD=T−C, where T was the time (in days) required for tumors in a drug treated group to reach a predetermined mean tumor volume and C the time (in days) in the control group to reach the same volume. A tumor weight was derived by equating 1,000 mm^3 in volume to 1,000 mg in weight. A net body weight was then derived by subtracting a tumor weight from a corresponding gross body weight with the tumor.
Summary statistics, including mean and the standard error of the mean (SEM), are provided for the tumor volume of each group at each time point. Statistical analysis of difference in tumor volume among groups was conducted on a data set either at the best therapeutic time point or at the final dosing day as indicated. The tumor volume data were log-transformed and evaluated using a one-way ANOVA followed by Tukey's test when significance was observed. All data were analyzed using SPSS 16.0 and p<0.05 was considered to be statistically significant.
The culture and inoculation of human prostate cancer cell line LNCaP were as described in Example 1. The manipulation for human liver cancer cell line HepG2 (ATCC) was similar as that for LNCaP except that DMEM (instead of RPMI-1640) medium was used, the L-glutamine was not used, and 2×10^6 cells were used for inoculation into female nude mice. The handling of human ovarian cancer cell line OVCAR-3 (ATCC) was the same as that of LNCaP except that the DMEM medium was used and 5×10^6 cells were used for inoculation into female nude mice. […]

[3] = test system: human breast cancer cell line MCF-7 xenografts; assay: MCF-7 xenograft growth inhibition in nude mice; details: 20 mg/kg i.p. once daily
Description: as §1, with “In addition, animals showing signs of severe distress and/or pain, dropping body weight more than 20% from that at the start of treatment, or losing the capability of accessing adequate food or water were humanely sacrificed.” left out
Tumor volume was measured twice weekly in two dimensions using a caliper and the volume was calculated with a formula of: V=0.5 a×b^2, where a and b are the long and short diameter (in mm) of a tumor, respectively. […] The TGD was calculated as: TGD=T−C, where T was the time (in days) required for tumors in a drug treated group to reach a predetermined mean tumor volume and C the time (in days) in the control group to reach the same volume. […]

[4] = iv, 1 mg/kg b.w. bolus i.v. in DMSO

COC(=O)c1csc(C(=O)c2c[nH]c3ccccc23)n1 [ITE, 2-(1′H-indole-3′-carbonyl)-thiazole-4-carboxylic acid methyl ester]
efficiency of absorption compared with i.v. injection ([1]; i.p. injection in DMSO): below 10%
AUC ([1]; ip, 10 mg/kg b.w. i.p. in DMSO): 0.197 µg·h/mL
half-life ([1]; ip, 10 mg/kg b.w. i.p. in DMSO): 1.13 h
AUC ([1]; ip, 40 mg/kg b.w. i.p. in DMSO): 0.332 µg·h/mL
half-life ([1]; ip, 40 mg/kg b.w. i.p. in DMSO): 1.61 h
AUC ([1]; ip, 80 mg/kg b.w. i.p. in DMSO): 0.499 µg·h/mL
half-life ([1]; ip, 80 mg/kg b.w. i.p. in DMSO): 5.17 h
AUC [1, 4]: 0.256 µg·h/mL
half-life [1, 4]: 0.1 h
AUC ([1]; po, 40 mg/kg b.w. p.o. in Labrasol:PEG 400 (2:8, v/v)): 0.107 µg·h/mL
AUC ([1]; po, 80 mg/kg b.w. p.o. in Labrasol:PEG 400 (2:8, v/v)): 0.097 µg·h/mL
absorption efficiency ([1]; p.o. in Labrasol:PEG 400 (2:8, v/v)): around 1%
net body weight loss [2]: no obvious net body weight loss
TGD (Tumor Growth Delay) ([2]; at a tumor volume of 800 mm^3): 29 days
TGI (Tumor Growth Inhibition) ([2]; day 22, TGI=ΔT/ΔC×100%): 25%
TGD (Tumor Growth Delay) ([3]; at a tumor volume of 500 mm^3): 3 days
TGI (Tumor Growth Inhibition) ([3]; day 19, TGI=ΔT/ΔC×100%): 71%
